What was measured:
T4 coliphage DNA = experiment: ethidium displacement assay, T4 coliphage DNA; assay type: binding; conditions: ± 0.02 × 10^5 M^-1, pH 7.4
Description: The ethidium displacement assay is based on the fact that ethidium binding to DNA causes a large (approximately 25 fold) florescence enhancement as a result of the hydrophobic environment surrounding the ethidium molecule. Displacement of ethidium results in decreased fluorescence, and thus binding constants of drugs to DNA can be estimated and compared by measuring the loss of fluorescence as a function of added drug. The drug concentration which produces 50% inhibition of florescence is approximately inversely proportional to the apparent binding constant.
The apparent binding constants for T4 coliphage DNA are an indicator of the minor groove selectivity of the compounds of the present invention. The major groove of T4 coliphage DNA is blocked by α-glycosylation of the 5-hydroxymethylcytidine residues; therefore, the non-intercalating agents that bind to T4 coliphage DNA must interact in the minor groove [Lown (1982) Acc. Chem. Res., 15, 381].
The relative DNA binding constants (Kapp) of distamycin and Compounds 6-10 to calf thymus DNA, T4 coliphage DNA, poly(dAdT) and poly(dGdC) were determined using the ethidium displacement assay (Morgan et al., 1979). The Kapp of ethidium bromide (Debart et al., 1989) is included for comparison. 25 μL of a 2A260 DNA solution was added to 2 mL of ethidium bromide buffer (250 μL of 1.3 mM ethidium bromidestock, 314.9 mg Tris-HCl, 60.8 mg Tris base and 930/mg of Na2 EDTA.2H2 O in 250 ml H2 O) pH 7.4 and the maximum fluorescence was measured (excitation wavelength=546 nm, emission wavelength=600 nm) at ambient temperature.
DNA solutions of 2A260 were prepared as follows: T4 coliphage DNA: 10 units of DNA were dissolved in 1 mL of 10 mM sodium phosphate (pH 7.1) and 0.25 mM EDTA buffer to give a 10A260 solution. 0.3 mL of the stock solution were diluted to 1.5 mL with 10 mM sodium phosphate (pH 7.1) and 0.25 mM EDTA buffer to give a 2A260 solution. Calf thymus DNA: 100 units of DNA were dissolved in 5 mL of 10 mM sodium phosphate (pH 7.1) and 0.25 mM EDTA buffer to give a 20A260 solution. 1.5 mL of the stock solution were diluted to 15 mL with 10 mM sodium phosphate (pH 7.1) and 0.25 mM EDTA buffer to give a 2A260 solution. Poly(dA-dT) and Poly(dG-dC) DNA: 100 units of DNA were dissolved in 10 mL of 10 mM sodium phosphate pH 7.1) and 0.25 mM EDTA buffer to give a 10A260 solution. 3 mL of the stock solution were diluted to 15 mL with 10 mM sodium phosphate (pH 7.1) and 0.25 mM EDTA buffer to give a 2A260 solution.
Aliquots of 10 mM stock drug solution (1 mg of drug to be tested was dissolved with 1 mole equivalent of 0.1M HCl, and then diluted with appropriate volume of distilled water to make a 10 mM solution) were then added to the fluorescing solution and the florescence measured after each addition until a 50% reduction of fluorescence occurred. If the 10 mM stock solution lowered the % fluorescence too quickly, the stock solution was further diluted to 1 mM prior to titration. The apparent binding constant was then calculated from this equation: KEtBr [EtBr]=Kapp [drug], where [drug]=the concentration of drug at a 50% reduction of fluorescence and KEtBr [1×10^7 M^-1 for calf thymus and coliphage T4 DNA^18, 9.5×10^6 M^-1 for poly(dA.dT)^30, and 9.9×10^6 M^-1 for poly(dG.dC)^30 ] and [EtBr] were known. The concentration of ethidium bromide was 1.3 μM. The Kapp values are shown in Table I. In a separate experiment, the Kapp of Compound 5 for calf thymus DNA and poly[dGdC] were determined to be 0.3×10^5 M^-1 and 2.6×10^5 M^-1, respectively. The error in these measurements is ±[…].

DMS-273 = experiment: NCI cytotoxicity screen (SRB); assay type: cell-based, human
Method: (§1) Compounds 6, 7, 9 and 10 were tested for cytotoxic properties by the National Cancer Institute, Bethesda, Md. The anticancer drug screen utilized a panel of 60 human tumor cell lines organized into subpanels representing leukemia, melanoma, and cancers of the lung, colon, kidney, ovary and central nervous system and is described by Monks et al. (1991) Journal of the National Cancer Institute 83, 757, which is incorporated herein by reference.
(§2) Cell lines were inoculated onto microtiter plates and preincubated for 24-28 hours. 100 μL aliquots of each compound were added to the appropriate microtiter plate wells in each of five 10-fold dilutions starting from a maximum concentration of 10^-4 M in water or DMSO. Cultures were then incubated for an additional 48 hours. Cells were then fixed in situ, followed by staining with sulforhodamine B (SRB), which binds to basic amino acids of cellular macromolecules. The solubilized stain was measured spectrophotometrically to determine relative cell growth or viability in treated and untreated cells. The monoimidazole analogs of Compounds 6, 7, 9 and 10 and the formamido analog corresponding to Compounds 7 and 10 are devoid of activity against the panel of cancer cell lines in Table III.

EKVX = experiment: NCI cytotoxicity screen (SRB); assay type: cell-based, human
Method: as §1, §2

HCC-2998 = experiment: NCI cytotoxicity screen (SRB); assay type: cell-based, human
Method: as §1, §2

HCT-116 = experiment: NCI cytotoxicity screen (SRB); assay type: cell-based, human
Method: as §1, §2

HCT-15 = experiment: NCI cytotoxicity screen (SRB); assay type: cell-based, human
Method: as §1, §2

HOP-62 = experiment: NCI cytotoxicity screen (SRB); assay type: cell-based, human
Method: as §1, §2

HT29 = experiment: NCI cytotoxicity screen (SRB); assay type: cell-based, human
Method: as §1, §2

K-562 = experiment: NCI cytotoxicity screen (SRB); assay type: cell-based, human
Method: as §1, §2

KM12 = experiment: NCI cytotoxicity screen (SRB); assay type: cell-based, human
Method: as §1, §2

NCI-H322M = experiment: NCI cytotoxicity screen (SRB); assay type: cell-based, human
Method: as §1, §2

U251 = experiment: NCI cytotoxicity screen (SRB); assay type: cell-based, human
Method: as §1, §2

[1] = 48 h, Non-Small Cell Lung Cancer EKVX
[2] = 48 h, Non-Small Cell Lung Cancer HOP-62
[3] = 48 h, Non-Small Cell Lung Cancer NCI-H322M
[4] = NCI-H322M, subsequent test date
[5] = 48 h, Small Cell Lung Cancer DMS-273

| SMILES | Association constant Kapp (T4 coliphage DNA) [M⁻¹] | IC50 (DMS-273; DMS-273, subsequent test date) [µM] | IC50 (EKVX; [1]) [µM] | IC50 (EKVX; EKVX, subsequent test date) [µM] | IC50 (HCC-2998; 48 h, Colon Cancer HCC-2998) [µM] | IC50 (HCC-2998; HCC-2998, subsequent test date) [µM] | IC50 (HCT-116; 48 h, Colon Cancer HCT-116) [µM] | IC50 (HCT-15; 48 h, Colon Cancer HCT-15) [µM] | IC50 (HCT-15; HCT-15, subsequent test date) [µM] | IC50 (HOP-62; [2]) [µM] | IC50 (HT29; 48 h, Colon Cancer HT29) [µM] | IC50 (HT29; HT29, subsequent test date) [µM] | IC50 (K-562; 48 h, Leukemia K-562) [µM] | IC50 (KM12; 48 h, Colon Cancer KM12) [µM] | IC50 (KM12; KM12, subsequent test date) [µM] | IC50 (NCI-H322M; [3]) [µM] | IC50 (NCI-H322M; [4]) [µM] | IC50 (U251; 48 h, CNS Cancer U251) [µM] | IC50 (U251; U251, subsequent test date) [µM] | IC50 (DMS-273; [5]) [µM] | other results |
| --- | --- | --- | --- | --- | --- | --- | --- | --- | --- | --- | --- | --- | --- | --- | --- | --- | --- | --- | --- | --- | --- |
| CN(C)CCNC(=O)c1nc(NC(=O)c2nc(NC(=O)c3ccc(N(CCCl)CCCl)cc3)cn2C)cn1C [Compound 6, N-(N',N'-dimethylaminoethyl)-1-methyl-4-{4-[4,4-bis(2-chloroethyl)aminobenzamido]-1-methylimidazole-2-carboxamido}imidazole-2-carboxamide] | 236000 | 31.3 | 47.5 | 38 | 33.7 | 8.14 | 6.54 | 40.5 | 43.2 | 52.3 | 5.9 | 27.4 | 17.2 | 47 | 31.6 | 40.5 | 51.7 | 6.73 | 5.8 |  | IC50 (HCT-116; HCT-116, subsequent test date): 6.71 µM; IC50 (HOP-62; HOP-62, subsequent test date): 50.6 µM; IC50 (K-562; K-562, subsequent test date): 12.3 µM |
| CN(C)CCNC(=O)c1nc(NC(=O)c2nc(NC(=O)c3nc(NC(=O)c4ccc(N(CCCl)CCCl)cc4)cn3C)cn2C)cn1C [Compound 7, N-(N',N'-dimethylaminoethyl)-1-methyl-4-{1-methyl-4-[4-(4,4-bis-(2-chloroethyl)aminobenzamido)-1-methylimidazole-2-carboxamido]imidazole-2-carboxamido}imidazole-2-carboxamide] | 168000 | 0.99 | 0.88 | 1.7 | 0.68 | 0.89 |  | > 10 | > 100 | 1.17 | 2.3 | 1.97 | 0.58 | 0.96 | 0.75 | 2.39 | 1.97 |  | 0.5 |  |  |
| CN(C)CCNC(=O)c1nc(NC(=O)c2nc(NC(=O)c3nc(NCc4ccc(N(CCCl)CCCl)cc4)cn3C)cn2C)cn1C [Compound 8, N-(N',N'-dimethylaminoethyl)-1-methyl-4-{1-methyl-4-[4-(4,4-bis-(2-chloroethyl)aminobenzylamino)-1-methylimidazole-2-carboxamido]imidazole-2-carboxamido}imidazole-2-carboxamide] | 193000 |  |  |  |  |  |  |  |  |  |  |  |  |  |  |  |  |  |  |  |  |
| CN(C)CCNC(=O)c1nc(NC(=O)c2nc(NC(=O)CCCc3ccc(N(CCCl)CCCl)cc3)cn2C)cn1C [Compound 9, N-(N',N'-dimethylaminoethyl)-1-methyl-4-{4-[4,4-bis(2-chloroethyl)aminophenyl-1-butanamido]-1-methylimidazole-2-carboxamido}imidazole-2-carboxamide] | 75000 |  |  |  | 55.1 |  | 50.2 | 61.3 |  | 75.5 |  |  | 54.2 | 60.9 |  | 77.6 |  | 46.2 |  | 42.7 |  |
| CN(C)CCNC(=O)c1nc(NC(=O)c2nc(NC(=O)c3nc(NC(=O)CCCc4ccc(N(CCCl)CCCl)cc4)cn3C)cn2C)cn1C [Compound 10, N-(N',N'-dimethylaminoethyl)-1-methyl-4-{1-methyl-4-[4-(4,4-bis(2-chloroethyl)aminophenyl-1-butanamido)-1-methylimidazole-2-carboxamido]imidazole-2-carboxamido}imidazole-2-carboxamide] | 19000 |  | 87.8 |  | 38.5 |  | 5.76 | 45.3 |  | 44 | 51 |  | 7.05 | 24.1 |  | 23.9 |  | 5.27 |  | 6.78 |  |
